Results taken from patent US9546188B2, “Complexes of germanium with amino acids and carboxylic acids and method for preparing same” (OBSCHESTVO S OGRANICHENNOI OTVETSTVENNOSTYU “WDS FARMA”, priority 2012, dated 2017).

Key:
[1] = system: and malignant tumors of the uterus; details: six patients, 100 mg orally twice daily; cited from earlier work
[2] = system: oval cancer and malignant tumors of the uterus; details: cited from earlier work
[3] = room temperature

| SMILES | exudate in the abdominal cavity or internal pelvic cavity [1] | infiltration in post-operational examination ([2]; examination one month later) | health of patients ([2]; six patients, 100 mg orally as 10% solution twice daily, tumors removed surgically) | toxic side effects ([2]; six patients, 100 mg orally twice daily) | water solubility [3] [%] |
| --- | --- | --- | --- | --- | --- |
| N[C@@H](CC(=O)O)C(=O)O.[Ge] [germanium compound with aspartic acid] | five patients did not show exudate | None patients showed infiltration | noticeable improvement in health | no toxic side effects | – |
| O=C(O)CCCCCCCC(=O)O [azelaic acid] | – | – | – | – | 0.2 |
